{"source": "patent US9101573B2", "about": "“Lanthionine synthetase component C-like proteins as molecular targets for preventing and treating diseases and disorders” (VIRGINIA TECH INTELLECTUAL PROPERTIES, INC., priority 2010, dated 2015)", "key": {"LANCL2": {"target": "T1, LANCL2 (Mus musculus, UniProt Q9JJK2)", "T1 construct": "Proteins were extracted from Raw 264.7 Macrophage using Radio-Immunoprecipitation Assay buffer; endogenous in cells; host or cells: RAW 264.7 macrophages", "T1 sequence (Q9JJK2 1-450)": "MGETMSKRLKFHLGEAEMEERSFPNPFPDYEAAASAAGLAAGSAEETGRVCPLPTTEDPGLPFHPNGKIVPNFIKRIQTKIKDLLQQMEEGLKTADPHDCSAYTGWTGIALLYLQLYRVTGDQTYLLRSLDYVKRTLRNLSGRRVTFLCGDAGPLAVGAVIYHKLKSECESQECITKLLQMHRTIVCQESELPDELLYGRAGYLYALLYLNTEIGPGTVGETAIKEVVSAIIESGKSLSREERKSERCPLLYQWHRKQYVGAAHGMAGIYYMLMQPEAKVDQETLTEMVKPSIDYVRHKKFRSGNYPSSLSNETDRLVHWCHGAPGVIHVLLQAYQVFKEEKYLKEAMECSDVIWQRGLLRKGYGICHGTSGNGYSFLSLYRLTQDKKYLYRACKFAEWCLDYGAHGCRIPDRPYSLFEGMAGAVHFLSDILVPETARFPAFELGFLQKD", "assay": "Western blot binding assay between ABA and LANCL2", "details": "RAW 264.7 macrophages treated with ABA for 20 minutes; re-probing western blot; control without ABA showed no band", "protocol": "RAW 264.7 macrophages were cultured with DMEM (Mediatech, Manassas, Va.) containing 10% fetal bovine serum (FBS) in two flasks and grown until 60-70% confluence. RAW 264.7 macrophages in one flask were treated with abscisic acid (SIGMA-ALDRICH) for 20 minutes. RAW 264.7 macrophages in the other flask without ABA were used as control. Proteins were extracted from Raw 264.7 Macrophage using Radio-Immunoprecipitation Assay buffer (RIPA) (SIGMA-ALDRICH) with inhibitors. 10% SDS-PAGE was applied to analyze the proteins in Bio-Rad mini-gel box running condition. For Western blotting, proteins were electrotransferred to nitrocellulose by standard methods along with the Presicion Plus Kaleidoscope Standard (BIO-RAD). Filters were blocked by 5% BSA in TBS-Tween for 1 hour, followed by incubation with rabbit anti-LANCL2 primary antibody (SIGMA-ALDRICH) in TBS-Tween for 6 hours at room temperature. Goat anti-rabbit horseradish peroxidase-conjugated secondary antibodie (Santa Cruz Biotechnology) was used 1:2,000 in TBS-Tween, and protein bands were detected with Immun-Star™ chemiluminescent substrate (BIO-RAD). […] Donkey anti-rat horseradish peroxidase-conjugated secondary antibodie (Santa Cruz Biotechnology) was used 1:2,000 in TBS-Tween, and protein bands were detected with Immun-Star™ chemiluminescent substrate (BIO-RAD)."}, "[1]": {"target": "T2, ligand-binding domain (LBD) of PPAR γ (Homo sapiens, UniProt P37231)", "T2 sequence (P37231 238-503 limits assumed)": "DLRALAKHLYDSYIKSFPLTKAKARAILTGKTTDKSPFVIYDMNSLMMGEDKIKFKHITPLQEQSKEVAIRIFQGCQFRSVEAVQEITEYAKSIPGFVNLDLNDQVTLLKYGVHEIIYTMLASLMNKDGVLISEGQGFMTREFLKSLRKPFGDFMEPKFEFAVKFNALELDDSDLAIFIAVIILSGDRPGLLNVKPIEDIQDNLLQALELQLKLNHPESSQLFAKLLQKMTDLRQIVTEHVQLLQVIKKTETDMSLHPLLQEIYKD", "assay": "Binding of ABA to PPAR γ LBD (unpublished data)"}, "[2]": {"system": "mouse model of DSS-induced colitis", "assay": "DSS-induced colitis (experimental IBD) in C57BL/6J wild-type mice", "format": "in vivo", "protocol": "Six to eight week old C57BL/6J wild-type mice (n=38) were housed at the animal facilities at Virginia Tech. in a room maintained at 75° F., with a 12:12 h light-dark cycle starting from 6:00 AM. Mice were randomly divided into four groups: a control group including 8 mice and the other three NSC61610 treatment groups containing 10 mice each. The three treatment groups received 0.5, 10 or 20 mg/kg NSC61610 by orogastric gavage for 7 days. All the mice were challenged with drinking water containing 2.5% DSS, 36,000-44,000 molecular weight (ICN Biomedicals, Aurora, Ohio) for 7 days. Mice were weighed on a daily basis and examined for clinical signs of disease associated with colitis (i.e., perianal soiling, rectal bleeding, diarrhea, and piloerection). For the DSS challenge, the disease activity indices and rectal bleeding scores were calculated using a modification of a previously published compounded clinical score. Briefly, disease activity index consisted of a scoring for diarrhea and lethargy (0-3), whereas rectal bleeding consisted of a visual observation of blood in feces and the perianal area (0-4). Mice in the DSS study were euthanized on day 7 of the DSS challenge. On day 7, mice were euthanized by CO2 narcosis followed by secondary thoracotomy and blood was withdrawn from the heart. Colon, spleen, and MLN were scored based on size and macroscopic inflammatory lesions (0-3), excised, and then crushed to produce single-cell suspensions for flow cytometry.\nColonic sections were fixed in 10% buffered neutral formalin, later embedded in paraffin, and then sectioned ([…]) and stained with H&E stain for histological examination. Colons were blindly graded with a compounded histological score including the extent of (1) leukocyte infiltration. (2) mucosal thickening, and (3) epithelial cell erosion. The sections were graded with a score of 0-4 for each of the previous categories and data were analyzed as a normalized compounded score.\nTotal RNA was isolated from colons using the RNA isolation Minikit (Qiagen) according to the manufacturer's instructions. Total RNA ([…]) was used to generate complementary DNA (cDNA) template using the iScript cDNA Synthesis Kit (Bio-Rad, Hercules, Calif.). The total reaction volume was 20 μL with the reaction incubated as follows in an MJ MiniCycler: 5 min at 25° C., 30 min at […], 5 min at 85° C., and hold at 4° C. PCR was performed on the cDNA using Taq DNA polymerase (Invitrogen, Carlsbad, Calif.) and using previously described conditions. Each gene amplicon was purified with the MiniElute PCR Purification Kit (Qiagen) and quantitated on an agarose gel by using a DNA mass ladder (Promega). These purified amplicons were used to optimize real-time (RT)-PCR conditions and to generate standard curves. Primer concentrations and annealing temperatures were optimized for the iCycler iQ system (Bio-Rad) for each set of primers using the system's gradient protocol. PCR efficiencies were maintained between 92 and 105% and correlation coefficients above 0.98 for each primer set during optimization and also during the real-time PCR of sample DNA.\nComplementary DNA (cDNA) concentrations for genes of interest were examined by real-time quantitative PCR using an iCycler IQ System and the iQ SYBR green supermix (Bio-Rad). A standard curve was generated for each gene using 10-fold dilutions of purified amplicons starting at 5 pg of cDNA and used later to calculate the starting amount of target cDNA in the unknown samples. SYBR green I is a general double-stranded DNA intercalating dye and may therefore detect non-specific products and primer/dimers in addition to the amplicon of interest. In order to determine the number of products synthesized during the real-time PCR, a melting curve analysis was performed on each product. Real-time PCR was used to measure the starting amount of nucleic acid of each unknown sample of cDNA on the same 96-well plate. […]"}, "PPAR γ": {"system": "PPAR γ", "assay": "PPAR γ reporter activity assay on 3T3-L1 pre-adipocytes", "format": "cell-based", "details": "2.5 μM, 24 hours, vs untreated cells", "protocol": "3T3-L1 cells were plated into white, opaque 96-well plates (BD) 24 hours before transfection and grown in DMEM containing 10% fetal bovine serum (FBS) until 70% confluence. Cells were then co-transfected with 0.2 μg pCMX.PPAR γ expression plasmid expression plasmid, 0.2 μg pTK.PPRE3x luciferase reporter plasmid driven by the PPRE-containing Acyl-CoA oxidase promoter and 0.2 μg pRL reporter control using the Lipofectamine 2000 transfection reagent (Invitrogen). After 48 hr incubation at 37° C., cells were then treated in replicates of 8 with NSC61610 2.5 μM or DMSO control and incubated for 24 hr at 37° C. After incubation, cells were harvested in reporter lysis reagent and luciferase activity was determined using the Dual Luciferase II reporter assay system (Promega, Madison, Wis.) in Modulus 96-well luminometer (Turner Biosystems, Sunnyvale, Calif.). All values were normalized to control wells to calculate relative luciferase activity."}, "[3]": {"system": "mouse model of DSS-induced colitis, PPAR γ fl/fl Cre−, CD4-Cre+ and Lysozyme M-Cre+ mice", "assay": "DSS colitis in tissue-specific PPAR γ null mice", "format": "in vivo", "protocol": "PPAR γ fl/fl MMTV-Cre− (n=20), tissue-specific PPAR γ fl/fl CD4-Cre+ ([…]) PPAR γ null mice (n=20) and tissue-specific PPAR γ fl/fl Lsozyme M-Cre+ (macrophage-deficient) PPAR γ null mice (n=20) littermates in a C57BL/6J background were generated by using the Cre-lox recombination system as previously described. The mice were housed at the animal facilities at Virginia Tech. in a room maintained at 75° F., with a 12:12 h light-dark cycle starting from 6:00 AM. In each group, 20 mice were randomly divided into two groups: a control group including 10 mice and a NSC61610 treatment groups containing 10 mice respectively. The three treatment groups received 20 mg/kg NSC61610 by orogastric gavage for 6 days. All the mice (n=60) were challenged with drinking water containing 2.5% DSS, 36,000-44,000 molecular weight (ICN Biomedicals, Aurora, Ohio) for 6 days. Mice were weighed on a daily basis and examined for clinical signs of disease associated with colitis (i.e., perianal soiling, rectal bleeding, diarrhea, and piloerection). For the DSS challenge, the disease activity indices and rectal bleeding scores were calculated using a modification of a previously published compounded clinical score. Briefly, disease activity index consisted of a scoring for diarrhea and lethargy (0-3), whereas rectal bleeding consisted of a visual observation of blood in feces and the perianal area (0-4). Mice in the DSS study were euthanized on day 6 of the DSS challenge. On day 6, mice were euthanized by CO2 narcosis followed by secondary thoracotomy and blood was withdrawn from the heart. Colon, spleen, and MLN were scored based on size and macroscopic inflammatory lesions (0-3), excised, and then crushed to produce single-cell suspensions for flow cytometry."}, "[4]": {"system": "pandemic 2009 H1N1 influenza A California/09 virus", "assay": "Pandemic H1N1 influenza virus infection in mice", "format": "in vivo"}, "[5]": {"details": "0.5, 10 and 20 mg/kg, day 7 of DSS"}, "[6]": {"details": "highest concentration, flow cytometry"}}, "data": [{"smiles": "CC1=CC(=O)CC(C)(C)[C@@]1(O)/C=C/C(C)=C\\C(=O)O", "note": "[abscisic acid, [S-(Z,E)]-5-(1-Hydroxy-2,6,6-trimethyl-4-oxo-2-cyclohexen-1-yl)-3-methyl-2,4-pentanedienoic acid]", "values": [{"measurement": "band with anti-ABA antibody at the LANCL2 location on the membrane", "setting": "LANCL2", "result": "clear band"}, {"measurement": "direct binding to the LBD of PPAR γ", "setting": "[1]", "result": "does not bind directly"}]}, {"smiles": "O=C(Nc1cccc(-c2nc3ccccc3[nH]2)c1)c1ccc(C(=O)Nc2cccc(-c3nc4ccccc4[nH]3)c2)cc1", "note": "[NSC61610, 1-N,4-N-bis[3-(1H-benzimidazol-2-yl)phenyl]benzene-1,4-dicarboxamide]", "values": [{"measurement": "disease activity index (DAI)", "setting": "[2]; 0.5, 10 and 20 mg/kg BW orogastric gavage, 7 days, 2.5% DSS, vs untreated control mice", "result": "significantly reduced"}, {"measurement": "gross inflammation in MLN", "setting": "[2]; [5]", "result": "significantly reduced"}, {"measurement": "gross inflammation in colon", "setting": "[2]; [5]", "result": "significantly reduced"}, {"measurement": "gross inflammation in spleen", "setting": "[2]; [5]", "result": "significantly reduced"}, {"measurement": "numbers of mesenteric lymph node (MLN) Treg", "setting": "[2]; flow cytometry", "result": "No effect"}, {"measurement": "percentage of F4/80+CD11b+ macrophages in the colonic lamina propria", "setting": "[2]; flow cytometry", "result": "reduced"}, {"measurement": "percentage of Treg cells in blood", "setting": "[2]; flow cytometry", "result": "significantly increased"}, {"measurement": "percentage of Treg cells in colon", "setting": "[2]; flow cytometry", "result": "significantly increased"}, {"measurement": "percentage of Treg cells in spleen", "setting": "[2]; flow cytometry", "result": "significantly increased"}, {"measurement": "percentage of CD4+ IL10+ T cells in MLN", "setting": "[2]; [6]", "result": "significantly increased"}, {"measurement": "percentage of CD4+ IL10+ T cells in blood", "setting": "[2]; [6]", "result": "significantly increased"}, {"measurement": "percentage of CD4+ IL10+ T cells in colon", "setting": "[2]; [6]", "result": "significantly increased"}, {"measurement": "percentage of CD4+ IL10+ T cells in spleen", "setting": "[2]; [6]", "result": "significantly increased"}, {"measurement": "PPAR γ gene expression in colon", "setting": "[2]; maximum dose 20 mg/kg", "result": "enhanced PPAR γ gene expression significantly"}, {"measurement": "epithelial erosion (colon histology)", "setting": "[2]; mice with DSS colitis", "result": "significantly reduced"}, {"measurement": "leukocyte infiltration (colon histology)", "setting": "[2]; mice with DSS colitis", "result": "significantly reduced"}, {"measurement": "mucosal thickening (colon histology)", "setting": "[2]; mice with DSS colitis", "result": "significantly reduced"}, {"measurement": "colonic expression of IL-6", "setting": "[2]; real-time quantitative PCR", "result": "significantly lowered"}, {"measurement": "colonic expression of MCP-1", "setting": "[2]; real-time quantitative PCR", "result": "significantly lowered"}, {"measurement": "colonic expression of TNF-α", "setting": "[2]; real-time quantitative PCR", "result": "significantly lowered"}, {"measurement": "PPAR γ gene expression in colon", "setting": "[2]; real-time quantitative PCR, vs control mice", "result": "increased"}, {"measurement": "PPAR γ expression (dual luciferase reporter)", "setting": "PPAR γ", "result": "significantly elevated"}, {"measurement": "disease activity index", "setting": "[3]; 20 mg/kg BW for 6 days during DSS challenge, vs untreated control mice", "result": "significantly reduced"}, {"measurement": "macroscopic inflammatory lesions", "setting": "[3]; PPAR γ-expressing mice with DSS colitis, 20 mg/kg", "result": "significantly reduced"}, {"measurement": "macroscopic inflammatory lesions", "setting": "[3]; T cell-specific PPAR γ null mice with DSS colitis, 20 mg/kg", "result": "significantly reduced"}, {"measurement": "effect on IBD in MLNs and spleens", "setting": "[3]; macrophage-specific PPAR γ null mice, 20 mg/kg", "result": "abrogated"}, {"measurement": "antigen-specific proliferation of splenocytes stimulated ex vivo with live virus", "setting": "[4]; day 13 post-infection, irrespective of genotype", "result": "higher"}, {"measurement": "extent of lung congestion and hyperemia (macroscopic and histological score)", "setting": "[4]; infected mice, 20 mg/kg", "result": "reduced"}, {"measurement": "influenza-related weight loss", "setting": "[4]; infected mice, 20 mg/kg orogastric gavage daily, vs untreated infected mice", "result": "lower weight loss"}, {"measurement": "body weight", "setting": "[4]; infected treated mice, by day 13", "result": "began to gain weight"}]}]}
